Laboratory results as given in patent US10227323B2, “Glucosylceramide synthase inhibitors for the treatment of diseases” (BIOMARIN PHARMACEUTICAL INC., priority 2013, dated 2019).

These molecules were tested against T1, GCS (Canis lupus familiaris, UniProt A0A8I3MXG6) (assay: Assay 1: GCS Enzymatic Assay (MDCK cell lysate, C6-NBD-Ceramide, LC/MS)). Conditions: Table 1; MDCK cell lysate; read-out: IC50 (nM) generated from Assay 1.
T1 sequence (A0A8I3MXG6 1-394): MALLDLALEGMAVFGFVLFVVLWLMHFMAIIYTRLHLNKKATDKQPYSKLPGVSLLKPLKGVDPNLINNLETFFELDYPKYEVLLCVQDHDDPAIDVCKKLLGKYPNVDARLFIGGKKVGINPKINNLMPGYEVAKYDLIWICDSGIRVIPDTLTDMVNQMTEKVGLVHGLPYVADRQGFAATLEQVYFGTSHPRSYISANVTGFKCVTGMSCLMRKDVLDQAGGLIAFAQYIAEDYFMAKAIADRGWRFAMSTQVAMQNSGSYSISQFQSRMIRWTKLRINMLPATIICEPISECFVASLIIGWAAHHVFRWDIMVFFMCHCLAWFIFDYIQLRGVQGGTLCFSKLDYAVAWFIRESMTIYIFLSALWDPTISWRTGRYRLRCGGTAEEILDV
Assay type: biochemical, canine
Procedure: This assay was modified based on the study by Larsen et al. (J. Lipid Res. 2011, 53, 282). Madin-Darby canine kidney (MDCK) cell lysate was prepared using M-PER Mammalian Protein Extraction Reagent (Thermal Scientific) in the presence of a protease inhibitor cocktail (Roche). Protein concentration was determined using BCA assay kit (Pierce). Sixty micrograms of MDCK cell lysate was incubated with various concentrations of a compound described herein from 0.001 μM-10 μM, respectively, in 100 mM Tris buffer (pH 7.5) containing 10 mM MgCl2, 1 mM dithiothreitol, 1 mM EGTA, 2 mM NAD, 100 μM UDP-glucose, 10 μM C6-NBD-Ceramide (Matreya LLC, Pleasant Gap, Pa.), 35 μM dioleoylphosphatidylcholine and 5 μM sulfatide (Sigma) in a final reaction volume of 100 μL at 37° C. for 1 hour. 0.1% DMSO was used as mock treatment or control. The reaction was terminated by adding 100 μL acetonitrile solution and subjected to LC/MS analysis.
The quantitative analysis of NBD-Ceramide and glucosylceramide was performed on a Shimadzu ultra-fast liquid chromatography (Shimadzu, Japan) coupled with API 4000 triple quadrupole mass spectrometer (Applied Biosystems, Concord, Ontario, Canada). Sample separation was conducted on a Waters Xbridge™ BEH130 C18, 100 mm×4.6 mm i.d, 3.5 μm (Milford, Mass., USA). The mobile phase consisted of water and acetonitrile supplemented with 0.1% formic acid (v/v). The flow rate was 1.0 mL/min. The initial mobile phase was 20% acetonitrile and was ramped in a linear fashion to 50% acetonitrile in 0.4 min. From 0.4 to 1.5 min, the gradient was ramped to 98% acetonitrile, and then was held at […] until 8.0 min. Acetonitrile was reset to 20% in 1.5 min, and maintained until 10.0 min. The total run time was 10.0 min. The MS/MS detection was performed in ESI positive mode. The mass transition of NBD-Ceramide was m/z 576.36→558.40 under the collision energy of 15 V, and the mass transition of glucosylceramide was m/z 738.35→558.40 under 21V collision energy. The cell lysate was diluted with equal volume of acetonitrile. Aliquots of 50 μL diluted samples were added to 1.5 mL tubes, and 100 μL of acetonitrile containing internal standard (100 ng/mL tolbutamide) were added for protein precipitation. The mixture were vortexed and then centrifuged at 13000 rpm for 10 min. 70 μL of supernatant were mixed with 140 μL of H2O and the final solution were injected for LC/MS/MS analysis and IC50's and/or percent inhibitions calculated.
With `O=C(N[C@H](CN1CCCC1)C(O)c1ccc2c(c1)OCCO2)C(F)(F)c1cc2cc(Cl)ccc2o1` (stereo partly drawn) [Compound 57B, N-[2-(2H,3H-benzo[e]1,4-dioxan-6-yl)(1R)-2-hydroxy-1-(pyrrolidinylmethyl)ethyl]-2-(5-chlorobenzo[d]furan-2-yl)-2,2-difluoroacetamide] the IC50 was under 50 nM. `O=C(N[C@H](CN1CCCC1)[C@H](O)c1ccc2c(c1)OCCO2)C(F)(F)c1cc2cc(Cl)cc(Cl)c2o1` [Compound 15, 2-(5,7-dichlorobenzofuran-2-yl)-N-((1R,2R)-1-(2,3-dihydrobenzo[b][1,4]dioxin-6-yl)-1-hydroxy-3-(pyrrolidin-1-yl)propan-2-yl)-2,2-difluoroacetamide] was tested, and the IC50 was under 50 nM. With `O=C(N[C@H](CN1CCC1)[C@H](O)c1ccc2c(c1)OCCO2)C(F)(F)c1cc2cc(Cl)ccc2o1` [Compound 32D, N-((1R,2R)-3-(azetidin-1-yl)-1-(2,3-dihydrobenzo[b][1,4]dioxin-6-yl)-1-hydroxypropan-2-yl)-2-(5-chlorobenzofuran-2-yl)-2,2-difluoroacetamide] the IC50 was under 50 nM. With `O=C(N[C@H](CN1CCCC1)[C@H](O)c1cc(F)c2c(c1)OCCO2)C(F)(F)c1cc2cc(Cl)ccc2o1` [Compound 64, 2-(5-chlorobenzofuran-2-yl)-2,2-difluoro-N-((1R,2R)-1-(8-fluoro-2,3-dihydrobenzo[b][1,4]dioxin-6-yl)-1-hydroxy-3-(pyrrolidin-1-yl)propan-2-yl)acetamide] the IC50 was under 50 nM.

Same assay, conditions: Table 1; values marked *; MDCK cell lysate
With `O=C(N[C@H](CN1CCCC1)[C@@H](O)c1ccc2c(c1)OCCO2)C(F)(F)CCc1ccc2ccccc2c1` [Compound 22K, N-((1S,2R)-1-(2,3-dihydrobenzo[b][1,4]dioxin-6-yl)-1-hydroxy-3-(pyrrolidin-1-yl)propan-2-yl)-2,2-difluoro-4-(naphthalen-2-yl)butanamide] the “% inhibition generated from Assay 1” value was “B* (the compound had a % inhibition of greater than or equal to about 3% but less than about 50%)”.

Same assay, conditions: Table 2; data marked by *
`O=C(N[C@H](CN1CCC1)[C@H](O)c1cc(F)c2c(c1)OCCO2)C(=O)c1ccc2cc(Cl)ccc2c1` [Compound 188, N-((1R,2R)-3-(azetidin-1-yl)-1-(8-fluoro-2,3-dihydrobenzo[b][1,4]dioxin-6-yl)-1-hydroxypropan-2-yl)-2-(6-chloronaphthalen-2-yl)-2-oxoacetamide] was tested, and the “% inhibition generated from Assay 1” value was “A* (the compound had a % inhibition of a percent inhibition of greater than or equal to about 50%)”. For `CC(C)(O)COc1ccc([C@H](O)[C@@H](CN2CCCC2)NC(=O)C(F)(F)c2cc3cc(Cl)ccc3o2)cc1Cl` [Compound 168, N-((1S,2R)-1-(3-chloro-4-(2-hydroxy-2-methylpropoxy)phenyl)-1-hydroxy-3-(pyrrolidin-1-yl)propan-2-yl)-2-(5-chlorobenzofuran-2-yl)-2,2-difluoroacetamide], the “% inhibition generated from Assay 1” value was “B* (the compound had a % inhibition of greater than or equal to about 3% but less than about 50%)”.

Same assay, conditions: Table 2; data without asterisk; read-out: IC50 (nM) generated from Assay 1
In the case of `O=C(N[C@H](CN1CCCC1)[C@H](O)c1ccc(OC2CC2)c(Cl)c1)C(=O)c1ccc(-c2ccc(Cl)s2)cc1` [Compound 363, N-((1R,2R)-1-(3-chloro-4-cyclopropoxyphenyl)-1-hydroxy-3-(pyrrolidin-1-yl)propan-2-yl)-2-(4-(5-chlorothiophen-2-yl)phenyl)-2-oxoacetamide], the IC50 was under 50 nM. `O=C(N[C@H](CN1CCCC1)[C@H](O)c1cc(F)c2c(c1)OCCO2)C(F)(F)C1Cc2ccc(Cl)cc2C1` (stereo partly drawn) [Compound 93, 2-(5-chloro-2,3-dihydro-1H-inden-2-yl)-2,2-difluoro-N-((1R,2R)-1-(8-fluoro-2,3-dihydrobenzo[b][1,4]dioxin-6-yl)-1-hydroxy-3-(pyrrolidin-1-yl)propan-2-yl)acetamide] showed an IC50 of under 50 nM. Molecule `O=C(N[C@H](CN1CCCC1)[C@H](O)c1ccc(OC2CC2)c(Cl)c1)/C(CCc1ccc2ccccc2c1)=N/O` [Compound 142, (E)-N-((1R,2R)-1-(3-chloro-4-cyclopropoxyphenyl)-1-hydroxy-3-(pyrrolidin-1-yl)propan-2-yl)-2-(hydroxyimino)-4-(naphthalen-2-yl)butanamide] has an IC50 of under 50 nM. `O=C(N[C@H](CN1CCCC1)[C@H](O)c1cc(F)c2c(c1)OCCO2)C(F)(F)c1ccc(-c2ccc(F)cc2)s1` [Compound 239, 2,2-difluoro-N-((1R,2R)-1-(8-fluoro-2,3-dihydrobenzo[b][1,4]dioxin-6-yl)-1-hydroxy-3-(pyrrolidin-1-yl)propan-2-yl)-2-(5-(4-fluorophenyl)thiophen-2-yl)acetamide] showed an IC50 of under 50 nM. `Cn1ncc2cc(C(=O)C(=O)N[C@H](CN3CCCC3)[C@H](O)c3ccc4c(c3)OCCO4)ccc21` [Compound 216, N-((1R,2R)-1-(2,3-dihydrobenzo[b][1,4]dioxin-6-yl)-1-hydroxy-3-(pyrrolidin-1-yl)propan-2-yl)-2-(1-methyl-1H-indazol-5-yl)-2-oxoacetamide] showed an IC50 of under 50 nM. `O=C(N[C@H](CN1CCC1)[C@H](O)c1ccc2c(c1)OCCO2)C(F)(F)CCc1ccc2ccccc2c1` [Compound 144, N-((1R,2R)-3-(azetidin-1-yl)-1-(2,3-dihydrobenzo[b][1,4]dioxin-6-yl)-1-hydroxypropan-2-yl)-2,2-difluoro-4-(naphthalen-2-yl)butanamide] showed an IC50 of under 50 nM. With `O=C(N[C@H](CN1CCCC1)[C@H](O)c1ccc(OC2CC2)c(Cl)c1)C(=O)c1ccc(Oc2ccc(F)cc2)cc1` [Compound 241, N-((1R,2R)-1-(3-chloro-4-cyclopropoxyphenyl)-1-hydroxy-3-(pyrrolidin-1-yl)propan-2-yl)-2-(4-(4-fluorophenoxy)phenyl)-2-oxoacetamide] the IC50 was under 50 nM. For `CC(C)n1ncc2cc(C(=O)C(=O)N[C@H](CN3CCCC3)[C@H](O)c3ccc(OC4CC4)c(Cl)c3)ccc21` [Example 321, N-((1R,2R)-1-(3-chloro-4-cyclopropoxyphenyl)-1-hydroxy-3-(pyrrolidin-1-yl)propan-2-yl)-2-(1-isopropyl-1H-indazol-5-yl)-2-oxoacetamide], the IC50 was under 50 nM. Work on `O=C(N[C@H](CN1CCCC1)[C@H](O)c1ccc2c(c1)OC=CO2)C(=O)c1ccc(-c2ccc(F)cc2)cc1` [Example 319, N-((1R,2R)-1-(benzo[b][1,4]dioxin-6-yl)-1-hydroxy-3-(pyrrolidin-1-yl)propan-2-yl)-2-(4′-fluoro-[1,1′-biphenyl]-4-yl)-2-oxoacetamide] yielded an IC50 of under 50 nM. `Cc1nn(C(C)C)c2ccc(C(=O)C(=O)N[C@H](CN3CCCC3)[C@H](O)c3ccc(OC4CC4)c(Cl)c3)cc12` [Example 317, N-((1R,2R)-1-(3-chloro-4-cyclopropoxyphenyl)-1-hydroxy-3-(pyrrolidin-1-yl)propan-2-yl)-2-(1-isopropyl-3-methyl-1H-indazol-5-yl)-2-oxoacetamide] was tested, and the IC50 was under 50 nM. With `O=C(N[C@H](CN1CCCC1)[C@H](O)c1ccc(OC2CC2)c(Cl)c1)C(=O)c1ccc(-c2ccc(F)cc2)cc1` [Compound 149, N-((1R,2R)-1-(3-chloro-4-cyclopropoxyphenyl)-1-hydroxy-3-(pyrrolidin-1-yl)propan-2-yl)-2-(4′-fluoro-[1,1′-biphenyl]-4-yl)-2-oxoacetamide] the IC50 was under 50 nM. For `C#Cc1ccc(C(=O)C(=O)N[C@H](CN2CCCC2)[C@H](O)c2ccc(OC3CC3)c(F)c2)cc1` [Compound 378, N-((1R,2R)-1-(4-cyclopropoxy-3-fluorophenyl)-1-hydroxy-3-(pyrrolidin-1-yl)propan-2-yl)-2-(4-ethynylphenyl)-2-oxoacetamide], the IC50 was under 50 nM. `Cc1nn(C(C)C)c2cc(-c3ccc(C(=O)C(=O)N[C@H](CN4CCCC4)[C@H](O)c4ccc(OC5CC5)c(Cl)c4)cc3)ccc12` [Example 334, N-((1R,2R)-1-(3-chloro-4-cyclopropoxyphenyl)-1-hydroxy-3-(pyrrolidin-1-yl)propan-2-yl)-2-(4-(1-isopropyl-3-methyl-1H-indazol-6-yl)phenyl)-2-oxoacetamide] gave an IC50 of under 50 nM.
